Data taken from patent US6812237B2, “N-substituted peptidyl nitriles as cysteine cathepsin inhibitors” (Novartis AG, priority 2000, dated 2004).

Experiments:
[1] = target: recombinant human cathepsin B (Homo sapiens, UniProt P07858); assay: in vitro cathepsin B assay; type: biochemical; settings: Z-Arg-Arg-AMC substrate, pH 5.8 phosphate buffer, fluorescence at 20 minutes
Experimental: The cathepsin inhibitory effects of the compound of the invention can be determined in vitro by measuring the inhibition of e.g. recombinant human cathepsins B, L and S. The buffer used in the assays is a 0.1 M pH 5.8 phosphate buffer containing EDTA (1.33 mM), DTT (2.7 mM) and Brij (0.03%).
The in vitro assays are carried out as follows:
To a microtiter well is added 100 uL of a 20 uM solution of inhibitor in assay buffer followed by 50 uL of a 6.4 mM solution of Z—Arg—Arg—AMC substrate (Peptides International) in assay buffer. After mixing, 50 uL of a 0.544 nM solution of recombinant human cathepsin B in assay buffer is added to the well, yielding a final inhibitor concentration of 10 uM. Enzyme activity is determined by measuring fluorescence of the liberated aminomethylcoumarin at […] using 380 nm excitation, at 20 minutes. % Enzyme inhibition is determined by comparison of this activity to that of a solution containing no inhibitor. Compounds are subsequently subjected to a dose response curve analysis to determine IC50 values.

melting point [°C] | IC50 [1] [nM] | SMILES
80 to 83 |  | N#C[C@@H](COCc1cccc(C(=O)O)c1)NC(=O)C1(Nc2ccccc2)CCCCC1 [Example 14 (a), N-[2-(3-carboxybenzyloxy)-1-(S)-cyanoethyl]-1-(phenylamino)-cyclohexanecarboxamide]
135 to 137 | ~100 | Cc1cccc(C[C@H](Nc2ccccc2)C(=O)NC(C#N)COCc2cccc(C(=O)O)c2)c1 (stereo in doubt) [Example 6, N-[2-(3-Carboxy-benzyloxy)-1(S)-cyanoethyl]-3-methyl-Nα-phenyl-L-phenylalaninamide]
86 to 88 |  | C=CCOC(=O)c1cccc(COCC(C#N)NC(=O)[C@H](Cc2cccc(C)c2)Nc2ccc(F)cc2)c1 (stereo in doubt) [Example 5, N-[2-[3-(allyloxycarbonyl)-benzyloxy]-1(S)-cyanoethyl]-3-methyl-Nα-(4-fluorophenyl)-L-phenylalaninamide]
169 to 170 |  | N#CCNC(=O)CN(c1ccccc1)C1Cc2ccccc2C1 [Example 14 (b), N-(cyanomethyl)-Nα-(phenyl)-indan-2-yl-glycine-amide]
